Here are results for 12 molecules from US20220132847A1, “CINNOLINIUM COMPOUNDS FOR USE IN A METHOD OF CONTROLLING UNWANTED PLANT GROWTH” (SYNGENTA CROP PROTECTION AG, priority 2019, published 2022).

Holding throughout (assay): Post-emergence efficacy, glasshouse
Type in all cases: in vivo

Assay [1] relates to Amaranthus palmeri (AMAPA). The following applies: Application Rate 1000 g/Ha, evaluated after 13 days, 100=total damage to plant, 0=no damage to plant; for pest or weed control at 1000 g/ha: Amaranthus palmeri, post-emergence, 312 h, read-out: Control of weed species after post-emergence application, AMAPA. The method in brief: (§1)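 Visual damage score, 0–100 (100 = total plant damage), 13 days after spraying. Spray: IF50/acetone formulation diluted in water with 0.25% or 1% sodium lauryl ether sulphate + 1% ammonium sulphate, applied to 14-day-old pot-grown plants.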

Assay [2] deals with Chenopodium album (CHEAL). The following applies: Application Rate 1000 g/Ha, evaluated after 13 days, 100=total damage to plant, 0=no damage to plant; for pest or weed control at 1000 g/ha: Chenopodium album, post-emergence, 312 h, read-out: Control of weed species after post-emergence application, CHEAL. The method in brief:
as §1

Assay [3] has as its system Digitaria sanguinalis (DIGSA). The following applies: Application Rate 1000 g/Ha, evaluated after 13 days, 100=total damage to plant, 0=no damage to plant; for pest or weed control at 1000 g/ha: Digitaria sanguinalis, post-emergence, 312 h, read-out: Control of weed species after post-emergence application, DIGSA. Put shortly:
as §1

Assay [4] has as its system Echinochloa crus-galli (ECHCG). As to conditions: Application Rate 1000 g/Ha, evaluated after 13 days, 100=total damage to plant, 0=no damage to plant; for pest or weed control at 1000 g/ha: Echinochloa crus-galli, post-emergence, 312 h, read-out: Control of weed species after post-emergence application, ECHCG. Put shortly: as §1
The test system of the next assay is Eleusine indica (ELEIN). The following applies: Application Rate 1000 g/Ha, evaluated after 13 days, 100=total damage to plant, 0=no damage to plant; for pest or weed control at 1000 g/ha: Eleusine indica, post-emergence, 312 h, read-out: Control of weed species after post-emergence application, ELEIN. The method in brief:
as §1

The subject of assay [5] is Euphorbia heterophylla (EPHHL). As to conditions: Application Rate 1000 g/Ha, evaluated after 13 days, 100=total damage to plant, 0=no damage to plant; for pest or weed control at 1000 g/ha: Euphorbia heterophylla, post-emergence, 312 h, read-out: Control of weed species after post-emergence application, EPHHL. Put shortly: as §1
Assay [6] relates to Ipomoea hederacea (IPOHE). The following applies: Application Rate 1000 g/Ha, evaluated after 13 days, 100=total damage to plant, 0=no damage to plant; for pest or weed control at 1000 g/ha: Ipomoea hederacea, post-emergence, 312 h, read-out: Control of weed species after post-emergence application, IPOHE. The method in brief:
as §1

Another assay concerns Lolium perenne (LOLPE). The following applies: Application Rate 1000 g/Ha, evaluated after 13 days, 100=total damage to plant, 0=no damage to plant; for pest or weed control at 1000 g/ha: Lolium perenne, post-emergence, 312 h, read-out: Control of weed species after post-emergence application, LOLPE. The method in brief: as §1
Another assay deals with Setaria faberi (SETFA). The following applies: Application Rate 1000 g/Ha, evaluated after 13 days, 100=total damage to plant, 0=no damage to plant; for pest or weed control at 1000 g/ha: Setaria faberi, post-emergence, 312 h, read-out: Control of weed species after post-emergence application, SETFA. Put shortly: as §1

SMILES strings stand for the structures.

In the case of `C[n+]1cc(C(=O)[N-]S(=O)(=O)c2ccc(Cl)s2)c2ccccc2n1` [Compound A39], the pest or weed control at 1000 g/ha in assay [1] is 80%; in assay [2], 30%; in assay [3], 10%; in [4], 20%; in the assay with Eleusine indica (ELEIN) it was 10%; in [5], 20%. The pest or weed control at 1000 g/ha in [6] was determined as 30%; in the assay with Lolium perenne (LOLPE), 0%; in the assay with Setaria faberi (SETFA), 30%.

As to `CCCCCCCC[n+]1cc(C(=O)[N-]S(C)(=O)=O)c2ccccc2n1` [Compound A40], the pest or weed control at 1000 g/ha in assay [1] was 90%; in assay [2] it was 70%; in assay [3], 20%; in [4] it was 20%; in the assay with Eleusine indica (ELEIN), 10%; in [5], 30%. Besides, the results for the pest or weed control at 1000 g/ha (in assay [6]; with Lolium perenne (LOLPE); in the assay with Setaria faberi (SETFA)) were 10%, 20% and 40%, respectively.

As to `CCCC[n+]1cc(C(=O)[N-]S(C)(=O)=O)c2ccccc2n1` [Compound A41], the pest or weed control at 1000 g/ha in assay [1] is 80%; in assay [2] it was 60%; in assay [3] it was 40%; in assay [4] it was 20%; in the assay on Eleusine indica (ELEIN), 30%; in assay [5], 100%. Besides, the pest or weed control at 1000 g/ha in [6] amounted to 80%; in the assay on Lolium perenne (LOLPE), 30%; in the assay with Setaria faberi (SETFA) it was 40%.

On to `COC(=O)CCS(=O)(=O)[N-]C(=O)c1c[n+](C)nc2ccccc12` [Compound A42], for which the pest or weed control at 1000 g/ha in assay [1] was determined as 70%; in assay [2], 60%; in [3], 60%; in [4] it was 20%; in the assay with Eleusine indica (ELEIN), 80%; in assay [5], 60%. In addition, the pest or weed control at 1000 g/ha in [6] stood at 40%; in the assay with Lolium perenne (LOLPE), 10%; in the assay with Setaria faberi (SETFA), 40%.

As for `C[n+]1cc(C(=O)[N-]S(=O)(=O)CCC(F)(F)F)c2ccccc2n1` [Compound A43], the pest or weed control at 1000 g/ha in assay [1] turned out to be 60%; in assay [2], 30%; in assay [3], 70%; in [4], 30%; with Eleusine indica (ELEIN) it was 90%; in [5], 90%. In addition, the pest or weed control at 1000 g/ha came out at 80% in assay [6], 20% in the assay on Lolium perenne (LOLPE) and 50% in the assay with Setaria faberi (SETFA).

Consider `C[n+]1cc(C(=O)[N-]S(=O)(=O)C(F)(F)F)c2ccccc2n1` [Compound A44], for which the pest or weed control at 1000 g/ha in assay [1] amounted to 80%; in [2], 40%; in assay [3] it was 0%; in [4], 20%; in the assay with Eleusine indica (ELEIN), 0%; in assay [5], 30%. Besides, the pest or weed control at 1000 g/ha in assay [6] was found to be 20%; in the assay with Lolium perenne (LOLPE) it was 0%; in the assay with Setaria faberi (SETFA) it was 20%.

As for `CC(C)CP(=O)([O-])c1c[n+](C)nc2ccccc12` [Compound A45], the pest or weed control at 1000 g/ha in assay [1] was found to be 100%; in assay [2], 90%; in assay [3], 90%; in assay [4] it was 70%; in the assay on Eleusine indica (ELEIN) it was 100%; in assay [5], 100%. The pest or weed control at 1000 g/ha in [6] was found to be 90%; in the assay on Lolium perenne (LOLPE) it was 50%; in the assay on Setaria faberi (SETFA) it was 90%.

For `CC(C)P(=O)([O-])c1c[n+](C)nc2ccccc12` [Compound A46], the pest or weed control at 1000 g/ha was 100% in [1]; 100% in assay [2]; 100% in assay [3]; 90% in assay [4]; 100% with Eleusine indica (ELEIN); 100% in assay [5]. The results for the pest or weed control at 1000 g/ha (in [6]; with Lolium perenne (LOLPE); in the assay on Setaria faberi (SETFA)) were 100%, 60% and 90%, respectively.

Regarding `CCOP(=O)(Cc1c[n+](C)nc2ccccc12)OCC.[I-]` [Compound A47, 4-(diethoxyphosphorylmethyl)-2-methyl-cinnolin-2-ium iodide], the “Control of weed species after post-emergence application, AMAPA” value in assay [1] is on record as 60. Moreover, the “Control of weed species after post-emergence application, CHEAL” value in [2] is given as 70. In addition, in assay [3], the “Control of weed species after post-emergence application, DIGSA” value is on record as 40. Besides, in [4], the “Control of weed species after post-emergence application, ECHCG” value worked out at 30. For the same molecule, the “Control of weed species after post-emergence application, ELEIN” value in the assay with Eleusine indica (ELEIN) amounted to 50. Besides, the “Control of weed species after post-emergence application, EPHHL” value in assay [5] was found to be 30. In addition, the “Control of weed species after post-emergence application, IPOHE” value in assay [6] is 20. In the assay with Lolium perenne (LOLPE), the “Control of weed species after post-emergence application, LOLPE” value was found to be 10. Also, in the assay on Setaria faberi (SETFA), the “Control of weed species after post-emergence application, SETFA” value was 40.

Take `CCP(=O)([O-])c1c[n+](C)nc2ccccc12` [Compound A48, ethyl-(2-methylcinnolin-2-ium-4-yl)phosphinate]: the pest or weed control at 1000 g/ha in assay [1] stood at 100%; in assay [2], 100%; in [3], 70%; in assay [4] it was 80%; in the assay with Eleusine indica (ELEIN), 100%; in assay [5] it was 100%. The pest or weed control at 1000 g/ha came out at 70% in assay [6], 40% with Lolium perenne (LOLPE) and 100% in the assay with Setaria faberi (SETFA).

In the case of `CCCP(=O)([O-])c1c[n+](C)nc2ccccc12` [Compound A49], the pest or weed control at 1000 g/ha in assay [1] turned out to be 100%; in assay [2], 90%; in assay [3], 100%; in [4] it was 70%; in the assay with Eleusine indica (ELEIN), 100%; in assay [5], 100%. In addition, the figures for the pest or weed control at 1000 g/ha (in [6]; in the assay with Lolium perenne (LOLPE); in the assay on Setaria faberi (SETFA)) were 90%, 30% and 90%, respectively.

In the case of `C[n+]1cc(CP(=O)([O-])O)c2ccccc2n1` [Compound A50, (2-methylcinnolin-2-ium-4-yl)methylphosphonic acid], the pest or weed control at 1000 g/ha worked out at 60% in [1]; 30% in assay [2]; 20% in [3]; 20% in [4]; 30% in the assay on Eleusine indica (ELEIN); 20% in assay [5]. Besides, the figures for the pest or weed control at 1000 g/ha (in assay [6]; with Lolium perenne (LOLPE); with Setaria faberi (SETFA)) were 20%, 0% and 10%, respectively.
